One experiment has as its system Type 2 diabetic patients. Description: Clinical efficacy on lipid metabolism disorders in diabetic patients (clinical study of mitiglinide calcium hydrate tablets). It is filed as in vivo, human. The procedure: The following clinical study was conducted in Type 2 diabetic patients using tablets containing 5 mg of mitiglinide calcium hydrate and tablets containing 10 mg of mitiglinide calcium hydrate.
Patients included: Type 2 diabetic patients;
Mode of dosing: oral administration of 5 to 20 mg as a single dose three times per day just before (5 minutes before) each meal;
Dosing period: 28 weeks to 52 weeks;
Major items of observation: stabilized hemoglobin A1c (HbA1c), biochemical examination of blood (total cholesterol, triglyceride, LDL-cholesterol, HDL-cholesterol, free fatty acid);
Statistical Method: in all patients with an abnormal value of each lipid at pretreatment and without any hypolipidemic agent, significance test was conducted on the average of the final evaluation against the average of the pretreatment (*: P<0.05, **: P<0.01).
Patients with 150 mg/dL or more of serum TG at pretreatment were picked out as an abnormal group, the efficacy of mitiglinide calcium hydrate was evaluated on the group.
Patients with 200 mg/dL or more of serum TC at pretreatment were picked out as an abnormal group, the efficacy of mitiglinide calcium hydrate was evaluated.
Patients with 0.86 mEq/L or more of serum free fatty acid (FFA), 120 mg/dL or more of LDL-cholesterol (LDL-C) and less than 40 mg/dL of HDL-cholesterol at pretreatment, respectively, were picked out as abnormal groups, the efficacy of mitiglinide calcium hydrate was evaluated.

A further experiment deals with diabetic patient. As to conditions: single dose; cited from earlier work.
The conditions of experiment [1]: after 12-week repeated administration compared to pretreatment; cited from earlier work.
For another experiment, the system named is diabetic patients. The following applies: single dose, compared to placebo; cited from earlier work.
Where [2] appears, read: Example 2, person, 52 weeks vs pretreatment.
The mark [3] stands for this setting: Example 4, person, 40 weeks vs pretreatment.
Where [4] appears, read: Example 5, person, 24 weeks vs pretreatment.
[5] abbreviates: Example 6, person, 52 weeks vs pretreatment.
Setting [6] is: Example 7, person, 52 weeks vs pretreatment.

With `O.O.O=C(O)[C@H](CC(=O)N1C[C@H]2CCCC[C@H]2C1)Cc1ccccc1.[Ca]` [mitiglinide calcium hydrate, (2S)-2-benzyl-3-(cis-hexa hydro-2-isoindolinylcarbonyl)propionic acid calcium dihydrate], the “FFA at the final evaluation” value with Type 2 diabetic patients (Example 2, person, 10 mg till 16th week then 20 mg, after 52-week administration, pretreatment 0.94) is on record as 0.26 mEq/L; in the experiment with Type 2 diabetic patients (Example 5, person with concomitant hyperlipidemia, 10 mg till 16th week then 20 mg, after 24-week administration, pretreatment 0.53), 0.30 mEq/L. Further, the “LDL-C at the final evaluation” value with Type 2 diabetic patients (Example 2, person, 10 mg till 16th week then 20 mg, after 52-week administration, pretreatment 137) turned out to be 108 mg/dL; in the experiment with Type 2 diabetic patients (Example 6, person with concomitant hyperlipidemia, 10 mg, after 52-week administration, pretreatment 149), 134 mg/dL; in the experiment with Type 2 diabetic patients (Example 7, person, 10 mg, after 52-week administration, pretreatment 129), 116 mg/dL. For the same compound, the “TC at the final evaluation” value with Type 2 diabetic patients (Example 2, person, 10 mg till 16th week then 20 mg, after 52-week administration, pretreatment 240) came out at 185 mg/dL; in the experiment with Type 2 diabetic patients (Example 4, person, 10 mg till 16th week then 20 mg, after 40-week administration, pretreatment 214) it was 162 mg/dL; in the experiment with Type 2 diabetic patients (Example 6, person with concomitant hyperlipidemia, 10 mg, after 52-week administration, pretreatment 260), 203 mg/dL; in the experiment on Type 2 diabetic patients (Example 7, person, 10 mg, after 52-week administration, pretreatment 226) it was 206 mg/dL. For the same compound, the figures for the “change of FFA” value in the experiment with Type 2 diabetic patients (setting [2]) and in the experiment with Type 2 diabetic patients (setting [4]) were −0.68 mEq/L and −0.23 mEq/L, respectively. Further, the results for the “change of LDL-C” value in the experiment on Type 2 diabetic patients (setting [2]), in the experiment on Type 2 diabetic patients (setting [5]) and with Type 2 diabetic patients (setting [6]) were -29 mg/dL, -15 mg/dL and -13 mg/dL, respectively. The “change of TC” value with Type 2 diabetic patients (setting [2]) was -55 mg/dL; in the experiment with Type 2 diabetic patients (setting [3]) it was -52 mg/dL; in the experiment with Type 2 diabetic patients (setting [5]) it was -57 mg/dL; with Type 2 diabetic patients (setting [6]) it was -20 mg/dL. Also, the “TG at the final evaluation” value with Type 2 diabetic patients (Example 3, person, 10 mg, after 52-week administration, pretreatment 171) was determined as 110 mg/dL; in the experiment on Type 2 diabetic patients (Example 4, person, 10 mg till 16th week then 20 mg, after 40-week administration, pretreatment 163), 101 mg/dL; in the experiment on Type 2 diabetic patients (Example 5, person with concomitant hyperlipidemia, 10 mg till 16th week then 20 mg, after 24-week administration, pretreatment 213), 145 mg/dL; in the experiment on Type 2 diabetic patients (Example 7, person, 10 mg, after 52-week administration, pretreatment 170), 100 mg/dL. The “change of TG” value with Type 2 diabetic patients (Example 3, person, 52 weeks vs pretreatment) is -61 mg/dL; in the experiment with Type 2 diabetic patients (setting [3]) it was -62 mg/dL; in the experiment with Type 2 diabetic patients (setting [4]), -68 mg/dL; in the experiment on Type 2 diabetic patients (setting [6]), -70 mg/dL. Further, the “HDL-C at the final evaluation” value in the experiment with Type 2 diabetic patients (Example 7, person, 10 mg, after 52-week administration, pretreatment 57) amounted to 72 mg/dL. Also, the “change of HDL-C” value with Type 2 diabetic patients (setting [6]) is reported as “+15 mg/dL”. For the same compound, the “Average of TG, Final evaluation” value in the experiment on Type 2 diabetic patients (all patients with 150 mg/dL or more of pretreatment TG, oral 5 to 20 mg three times per day, 28 to 52 weeks, pretreatment average 262.6, ** P<0.01 vs pretreatment) is 216.3** mg/dL. Also, in the experiment on Type 2 diabetic patients (all patients with 200 mg/dL or more of TC at pretreatment, oral 5 to 20 mg three times per day, 28 to 52 weeks, pretreatment average 231.8, * P<0.05 vs pretreatment), the “Average of TC, After the end of administration” value was 226.4* mg/dL. Besides, in the experiment on Type 2 diabetic patients (patients with 120 mg/dL or more of LDL-C at pretreatment, pretreatment average 144.9, ** P<0.01), the “Average LDL-C, After the end of administration” value was 137.7** mg/dL. Further, the “Average FFA, After the end of administration” value in the experiment on Type 2 diabetic patients (patients with 0.86 mEq/L or more of FFA at pretreatment, pretreatment average 1.021, ** P<0.01) is given as 0.745** mEq/L. Moreover, the “overall effect on blood lipids” value with Type 2 diabetic patients (patients with high blood TG, blood TC, FFA or LDL-C, or low HDL-C) is on record as “remarkable effects to lower TG, TC, LDL-C or FFA, or increase HDL-C”. In addition, in the experiment with Type 2 diabetic patients (patients with less than 40 mg/dL of HDL-C at pretreatment, pretreatment average 34.7, ** P<0.01), the “Average HDL-C, After the end of administration” value is given as 40.3** mg/dL.
Consider `CC(C)[C@H]1CC[C@H](C(=O)N[C@H](Cc2ccccc2)C(=O)O)CC1` [nateglinide], for which the “effect on postprandial increase of triglyceride” value in the experiment with diabetic patient is “suppressed postprandial increase of triglyceride”. Further, the “effect on postprandial lipid variation” value in experiment [1] was “did not show a significant improvement”.
Consider `CCOc1cc(CC(=O)N[C@@H](CC(C)C)c2ccccc2N2CCCCC2)ccc1C(=O)O` [repaglinide], for which, in the experiment with diabetic patients, the “effect on postprandial lipid variation” value is on record as “did not show significant improving effect”.

The values are drawn from patent US20080021086A1, “Pharmaceutical Composition for Prevention or Treatment of Lipid Metabolism Disorder” (KISSEI PHARMACEUTICAL CO., LTD., priority 2004, published 2008).
